Experimental data from the OligoGym collection.
HELM strings list units from the 5' end as sugar, base in round brackets, then linkage (d deoxyribose, r ribose, m 2'-O-methyl, p phosphodiester). Strings are as the collection lists them, not checked against the first reports. ss, as = sense and antisense strand; [una] = unlocked nucleic acid; [s4r] = 4'-thioribose; [fl2r] = 2'-fluoro

Settings: siRNA
Further: test system not given here.

Substance	target mRNA knockdown [%]
RNA1{r(G)p.r(C)p.[fl2r](U)p.r(A)p.r(C)p.r(C)p.r(G)p.[fl2r](C)p.r(A)p.r(A)p.r(C)p.[fl2r](C)p.r(A)p.r(C)p.r(G)p.r(A)p.r(G)p.r(C)p.r(U)p.r(T)p.r(T)}|RNA2{r(A)p.r(G)p.r(C)p.r(U)p.r(C)p.r(G)p.[fl2r](U)p.r(G)p.r(G)p.r(U)p.[fl2r](U)p.r(G)p.r(C)p.r(G)p.r(G)p.[fl2r](U)p.r(A)p.r(G)p.r(C)p.r(T)p.r(T)}$$$RNA1{StrandType:ss}|RNA2{StrandType:as}$	42
RNA1{r(G)p.r(A)p.r(A)p.r(A)p.r(A)p.r(C)p.r(G)p.r(C)p.r(U)p.r(U)p.r(G)p.r(U)p.r(A)p.r(A)p.r(A)p.r(G)p.r(C)p.r(C)p.r(G)p.r(T)p.r(T)}|RNA2{r(C)p.r(G)p.r(G)p.r(C)p.r(U)p.r(U)p.m(U)p.r(A)p.r(C)p.r(A)p.r(A)p.r(G)p.r(C)p.r(G)p.r(U)p.r(U)p.r(U)p.r(U)p.r(C)p.r(T)p.r(T)}$$$RNA1{StrandType:ss}|RNA2{StrandType:as}$	56
RNA1{r(G)p.r(A)p.r(A)p.r(G)p.r(G)p.r(G)p.r(G)p.r(A)p.r(A)p.r(A)p.r(U)p.r(C)p.m(U)p.m(G)p.m(U)p.m(G)p.r(G)p.r(U)p.r(U)p.r(T)p.r(T)}|RNA2{r(A)p.r(A)p.r(C)p.m(C)p.m(A)p.m(C)p.m(A)p.r(G)p.r(A)p.r(U)p.r(U)p.r(U)p.r(C)p.r(C)p.r(C)p.r(C)p.r(U)p.r(U)p.r(C)p.r(T)p.r(T)}$$$RNA1{StrandType:ss}|RNA2{StrandType:as}$	61
RNA1{r(G)p.r(G)p.r(A)p.r(C)p.r(A)p.r(U)p.r(U)p.r(C)p.r(A)p.r(G)p.r(A)p.r(A)p.r(C)p.r(A)p.r(A)p.r(G)p.r(A)p.r(A)p.r(A)p.[una](U)p.[una](U)}|RNA2{r(U)p.r(U)p.r(U)p.r(C)p.r(U)p.r(U)p.r(G)p.r(U)p.r(U)p.[una](C)p.r(U)p.r(G)p.r(A)p.r(A)p.r(U)p.r(G)p.r(U)p.r(C)p.r(C)p.[una](U)p.[una](U)}$$$RNA1{StrandType:ss}|RNA2{StrandType:as}$	17
RNA1{[fl2r](A)p.r(G)p.r(A)p.[fl2r](G)p.r(A)p.[fl2r](A)p.r(G)p.[fl2r](G)p.[fl2r](G)p.r(C)p.r(G)p.[fl2r](U)p.r(C)p.r(U)p.r(C)p.[fl2r](U)p.r(A)p.[fl2r](C)p.r(A)p.r(T)p.r(T)}|RNA2{r(U)p.r(G)p.r(U)p.r(A)p.r(G)p.r(A)p.r(G)p.r(A)p.r(C)p.r(G)p.r(C)p.r(C)p.r(C)p.r(U)p.r(U)p.r(C)p.r(U)p.r(C)p.r(U)p.r(T)p.r(T)}$$$RNA1{StrandType:ss}|RNA2{StrandType:as}$	75
RNA1{r(U)p.[fl2r](U)p.r(A)p.r(C)p.r(C)p.r(C)p.r(C)p.r(G)p.r(A)p.r(U)p.r(U)p.r(C)p.r(A)p.r(G)p.r(C)p.r(C)p.r(U)p.r(C)p.r(U)p.r(T)p.r(T)}|RNA2{r(A)p.r(G)p.r(A)p.r(G)p.r(G)p.r(C)p.r(U)p.r(G)p.r(A)p.r(A)p.r(U)p.r(C)p.r(G)p.r(G)p.r(G)p.r(G)p.r(U)p.[fl2r](A)p.r(A)p.r(T)p.r(T)}$$$RNA1{StrandType:ss}|RNA2{StrandType:as}$	69
RNA1{r(G)p.r(C)p.r(U)p.r(G)p.[fl2r](U)p.r(A)p.r(A)p.r(C)p.r(C)p.r(U)p.r(C)p.r(G)p.r(G)p.r(A)p.r(G)p.r(A)p.r(G)p.r(U)p.r(U)p.r(T)p.r(T)}|RNA2{r(A)p.r(A)p.r(C)p.r(U)p.r(C)p.r(U)p.r(C)p.r(C)p.r(G)p.r(A)p.r(G)p.r(G)p.r(U)p.[fl2r](U)p.r(A)p.r(C)p.r(A)p.r(G)p.r(C)p.r(T)p.r(T)}$$$RNA1{StrandType:ss}|RNA2{StrandType:as}$	69
RNA1{r(G)p.r(G)p.r(G)p.r(A)p.r(G)p.r(G)p.r(U)p.r(C)p.r(U)p.r(U)p.r(A)p.r(G)p.r(A)p.r(A)p.r(A)p.r(A)p.r(C)p.r(A)p.r(C)p.r(T)p.r(T)}|RNA2{r(G)p.r(U)p.r(G)p.r(U)p.r(U)p.r(U)p.r(U)p.r(C)p.m(U)p.r(A)p.r(A)p.r(G)p.r(A)p.r(C)p.r(C)p.r(U)p.r(C)p.r(C)p.r(C)p.r(T)p.r(T)}$$$RNA1{StrandType:ss}|RNA2{StrandType:as}$	82
RNA1{r(G)p.r(A)p.r(G)p.[fl2r](U)p.r(A)p.r(U)p.r(U)p.r(U)p.r(C)p.r(C)p.r(G)p.r(C)p.[fl2r](U)p.r(G)p.r(G)p.r(A)p.r(A)p.r(C)p.r(U)p.r(T)p.r(T)}|RNA2{r(A)p.r(G)p.r(U)p.r(U)p.r(C)p.[fl2r](C)p.r(A)p.r(G)p.r(C)p.r(G)p.r(G)p.r(A)p.r(A)p.r(A)p.[fl2r](U)p.r(A)p.r(C)p.r(U)p.r(C)p.r(T)p.r(T)}$$$RNA1{StrandType:ss}|RNA2{StrandType:as}$	73
RNA1{r(G)p.r(U)p.r(A)p.r(U)p.r(G)p.r(A)p.r(C)p.r(C)p.r(G)p.r(A)p.r(C)p.r(U)p.r(A)p.r(C)p.r(G)p.r(C)p.r(G)p.r(U)p.r(A)p.r(T)p.r(T)}|RNA2{r(U)p.r(U)p.r(C)p.r(A)p.r(G)p.r(U)p.r(G)p.r(U)p.r(G)p.r(A)p.r(U)p.r(G)p.r(A)p.r(C)p.r(A)p.r(C)p.r(U)p.r(U)p.r(G)p.[una](T)p.[una](T)}$$$RNA1{StrandType:ss}|RNA2{StrandType:as}$	81
RNA1{r(A)p.r(A)p.r(A)p.r(G)p.r(G)p.r(G)p.r(G)p.r(A)p.r(G)p.r(U)p.m(U)p.r(G)p.r(C)p.m(U)p.r(G)p.r(G)p.r(A)p.r(A)p.r(G)p.r(T)p.r(T)}|RNA2{r(C)p.r(U)p.r(U)p.r(C)p.m(C)p.r(A)p.r(G)p.r(C)p.r(A)p.r(A)p.r(C)p.r(U)p.r(C)p.r(C)p.r(C)p.r(C)p.r(U)p.r(U)p.r(U)p.r(T)p.r(T)}$$$RNA1{StrandType:ss}|RNA2{StrandType:as}$	76
RNA1{r(G)p.r(G)p.m(U)p.m(A)p.r(G)p.r(A)p.r(A)p.m(U)p.r(A)p.r(G)p.r(G)p.r(U)p.r(U)p.r(U)p.r(U)p.r(C)p.r(C)p.r(C)p.r(C)p.r(T)p.r(T)}|RNA2{r(G)p.r(G)p.r(G)p.r(G)p.r(A)p.r(A)p.r(A)p.r(A)p.r(C)p.r(C)p.m(U)p.r(A)p.r(U)p.r(U)p.r(C)p.m(U)p.r(A)p.r(C)p.r(C)p.r(T)p.r(T)}$$$RNA1{StrandType:ss}|RNA2{StrandType:as}$	45
RNA1{r(C)p.r(G)p.r(U)p.r(A)p.r(C)p.r(G)p.r(C)p.r(G)p.r(G)p.r(A)p.r(A)p.r(U)p.r(A)p.r(C)p.r(U)p.r(U)p.r(C)p.r(G)p.r(A)p.r(T)p.r(T)}|RNA2{r(U)p.r(C)p.r(G)p.r(A)p.r(A)p.r(G)p.r(U)p.r(A)p.r(U)p.r(U)p.r(C)p.r(C)p.r(G)p.r(C)p.r(G)p.r(U)p.r(A)p.[s4r](C)p.[s4r](G)p.r(T)p.r(T)}$$$RNA1{StrandType:ss}|RNA2{StrandType:as}$	90.2
RNA1{[fl2r](C)p.r(A)p.r(G)p.r(A)p.r(G)p.[fl2r](C)p.r(A)p.r(A)p.[fl2r](U)p.[fl2r](U)p.r(G)p.[fl2r](U)p.[fl2r](U)p.[fl2r](U)p.r(A)p.[fl2r](C)p.[fl2r](C)p.[fl2r](U)p.r(A)p.r(T)p.r(T)}|RNA2{[fl2r](U)p.r(A)p.r(G)p.r(G)p.[fl2r](U)p.r(A)p.r(A)p.r(A)p.[fl2r](C)p.r(A)p.r(A)p.[fl2r](U)p.[fl2r](U)p.r(G)p.[fl2r](C)p.[fl2r](U)p.[fl2r](C)p.r(U)p.r(G)p.r(T)p.r(T)}$$$RNA1{StrandType:ss}|RNA2{StrandType:as}$	72
